Data: patent US11207313B2, “Pharmaceutical composition” (Novartis AG, priority 2017, dated 2021)

What was measured:
Assay type in all cases: physicochemical
[1] = Solubility of Compound A in formulations and precipitation on storage at room temperature
[2] = Precipitation of Compound A under dispersion in pH 6.5 buffer (microscope); details: room temperature, after at least 6 hours, all developed formulations
Excerpt: Then, the precipitation of Compound A in each formulation was controlled by microscope under dispersion in pH 6.5 buffer at room temperature.

[3] = Biopharmaceutics classification and water solubility statement
Excerpt: The design of a pharmaceutical composition, a pharmaceutical dosage form, as well as a commercially viable process to prepare the pharmaceutical composition, for a non-bile FXR agonist, such as 2-[(1R,3R,5S)-3-({5-cyclopropyl-3-[2-(trifluoromethoxy)phenyl]-1,2-oxazol-4-yl}methoxy)-8-azabicyclo[3.2.1]octan-8-yl]-4-fluoro-1,3-benzothiazole-6-carboxylic acid, or a pharmaceutically acceptable salt thereof, is especially challenging. […] For example, due to its very high potency a low dosage is needed, generating unwanted formulation issues such as content uniformity, and additional handling restrictions on a large manufacturing scale. […] Accordingly, a suitable and robust solid pharmaceutical composition overcoming the above problems needs to be developed.

Compound: O=C(O)c1cc(F)c2nc(N3C4CCC3CC(OCc3c(-c5ccccc5OC(F)(F)F)noc3C3CC3)C4)sc2c1 [Compound A, 2-[(1R,3R,5S)-3-({5-cyclopropyl-3-[2-(trifluoromethoxy)phenyl]-1,2-oxazol-4-yl}methoxy)-8-azabicyclo[3.2.1]octan-8-yl]-4-fluoro-1,3-benzothiazole-6-carboxylic acid]
- Precipitation after storage ([1]; 7 days storage at room temperature, all formulations): no precipitation was observed
- Solubility of Compound A in formulations ([1]; all formulations of Tables 1 to 3 combined with Compound A): fully soluble
- Precipitation of Compound A under dispersion [2]: No precipitation
- Biopharmaceutics classification system class [3]: class IV
- Water solubility [3]: low water solubility
